Assay results as given in patent publication EP1242382B1, “TRICYCLIC PROTEIN KINASE INHIBITORS” (Wyeth, priority 1999, dated 2001).

Columns and labels:
Raf-1 (c-Raf) = target: T1, Raf-1 (c-Raf) (Homo sapiens, UniProt P04049); test: Raf1 kinase cascade assay procedure; assay type: biochemical
T1 construct: Sf9 insect cell lysate containing full length 6his-tagged recombinant human c-Raf; host or cells: c-Raf: Sf9 insect cell lysate; MEK1 and MAPK: E. coli
Description: (Specific Activity: ~200U/ml). Human Non-active Mek-1-GST and human GST-MAP kinase (recombinant proteins produced in E. coli).
• 1. Assay Dilution Buffer (ADB): 20mM MOPS, pH 7.2, 25mM β-glycerol phosphate, 5mM EGTA, 1mM sodium orthovanadate, 1mM dithiothreitol. • 2. Magnesium/ATP Cocktail: 500µM cold ATP and 75 mM magnesium chloride in ADB. • 4. Active Kinase: Human Active c-Raf: Use at 0.4U per assay point • 5. Non-active GST-MEK1: Use at 0.1µg per assay point. • 6. Non-active GST-p42 MAP Kinase: Use at 1.0 µg per assay point
• 1. TBST - Tris (50 mM, pH 7.5), NaCl (150 mM), Tween-20 (0.05 %) • 2. Superblock (Pierce) • 3. Anti-GST Ab (Pharmacia) • 4. Anti-Phospho MAPK (Sigma) • 5. Anti-Mouse Ab / Europium conjugate (Wallac)
First Stage: c-Raf Dependent Activation of GST-MEK and GST-MAPK • 1. Add […] of ADB per assay (i.e. per well of a 96 well plate) • 2. Add 10 ml of 0.5 mM cold ATP and 75 mM magnesium chloride in ADB. • 3. Add 2 ml of c-Raf (0.4U/assay), in conjunction with 1.6ml non-active MEK1 ([…]). • 4. Add 4 ml of non-active GST-p42 MAP Kinase (1.0 mg/assay). • 5. Incubate for 60 minutes at 30°C in a shaking incubator. • 6. Transfer this mixture to an anti-GST Ab coated 96 well plate (Nunc Immunosorb plates coated o/n with a-GST, then blocked with Pierce Superblock). • 7. Incubate for 60 minutes at 30°C in a shaking incubator Wash 3X with TBST, add Anti-Phospho MAPK (Sigma) (1:3000) • 6. Incubate for 60 minutes at 30°C in a shaking incubator • 7. Wash 3X with TBST, add Anti-Mouse Ab / Europium conjugate (Wallac) (1:500) • 8. Incubate for 60 minutes at 30°C in a shaking incubator • 9. Wash 3X with TBST, Read plates in Wallac Victor model Plate Reader. • 10. Collect data analyze in Excel for single point and IC50 determinations.
Typically Raf-1 assay is run at compound concentrations from 10 µM to 1 nM in half log dilutions. (% inhibition is determined for each compound concentration).

[1] = system: Rat2 fibroblasts stably transformed with v-Src/Hu c-Src fusion gene; test: Anchorage independent Src-transformed fibroblast proliferation test procedure; assay type: cell-based; settings: Rattus norvegicus; for IC50: the 3rd table c6, (a)-(d) = average of two to five runs, read-out: Src TF prolif IC50
Source text: Anchorage Independent Src-transformed Fibroblast Proliferation Test Procedure: Rat2 fibroblasts stably transformed with a plasmid containing a CMV promotor controlled v-Src/Hu c-Src fusion gene in which the catalytic domain of human c-Src is inserted in place of the v-Src catalytic domain in the v-Src gene are used for the measurement of src dependent suspension growth.

p60^c-src (Src) = target: T2, p60^c-src (Src) (Homo sapiens, UniProt P12931); test: Src kinase test procedure (Elisa format); assay type: biochemical
T2 construct: purchased Upstate Biotechnologies
Description: Inhibitors of p60^c-src (partially purified preparation purchased from Upstate Biotechnologies) tyrosine kinase activity are analyzed in an Elisa format. […] HRP-conjugated anti-phosphotyrosine is used to detect phosphorylated peptide via a color reaction. Conditions recommended by the manufacturer are employed.
Reaction conditions: Five microliter aliquots of each compound prepared fresh at the time of the assay are added as a solution in 10mM HEPES pH 7.5, 10% DMSO to the reaction well. Thirty-five microliters of reaction mix containing Src, buffer and peptide/bovine serum albumin mix are added to the compound wells and incubated at 30°C for 10 minutes (reaction buffer: 50mM TrisHCl pH 7.5, 10mM MgCl2, 0.1mM EGTA, 0.5mM Na3VO4). The reaction is started by addition of 10 microliters of ATP, incubated at 30°C for 1 hour, and stopped by addition of 20 microliters of 0.5M EDTA. The reaction mixture with the phosphorylated peptide is then transferred to a streptavidin-coated microtiter plate (provided in the kit) and allowed to bind for 20 minutes. Unbound peptide and reaction mixture is decanted and the plate is washed with PBS six times. Horseradish peroxidase-conjugated phosphotyrosine antibody supplied in the kit is incubated with the plate for one hour, then decanted. The plate is again washed with PBS six times.

T2 sequence (P12931 whole entry): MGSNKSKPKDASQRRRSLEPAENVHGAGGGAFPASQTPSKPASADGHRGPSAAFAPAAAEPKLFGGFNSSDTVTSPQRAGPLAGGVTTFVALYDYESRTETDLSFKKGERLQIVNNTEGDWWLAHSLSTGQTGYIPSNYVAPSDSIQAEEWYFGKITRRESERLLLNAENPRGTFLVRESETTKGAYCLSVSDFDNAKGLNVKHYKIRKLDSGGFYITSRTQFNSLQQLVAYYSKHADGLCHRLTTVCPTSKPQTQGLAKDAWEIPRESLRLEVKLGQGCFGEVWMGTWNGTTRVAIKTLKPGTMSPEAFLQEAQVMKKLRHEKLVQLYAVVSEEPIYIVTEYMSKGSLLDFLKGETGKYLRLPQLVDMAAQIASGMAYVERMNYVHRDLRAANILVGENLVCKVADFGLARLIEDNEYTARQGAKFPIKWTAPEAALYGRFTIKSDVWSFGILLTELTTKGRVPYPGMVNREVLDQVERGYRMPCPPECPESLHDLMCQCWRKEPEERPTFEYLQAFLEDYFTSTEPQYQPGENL
T1 sequence (P04049 whole entry): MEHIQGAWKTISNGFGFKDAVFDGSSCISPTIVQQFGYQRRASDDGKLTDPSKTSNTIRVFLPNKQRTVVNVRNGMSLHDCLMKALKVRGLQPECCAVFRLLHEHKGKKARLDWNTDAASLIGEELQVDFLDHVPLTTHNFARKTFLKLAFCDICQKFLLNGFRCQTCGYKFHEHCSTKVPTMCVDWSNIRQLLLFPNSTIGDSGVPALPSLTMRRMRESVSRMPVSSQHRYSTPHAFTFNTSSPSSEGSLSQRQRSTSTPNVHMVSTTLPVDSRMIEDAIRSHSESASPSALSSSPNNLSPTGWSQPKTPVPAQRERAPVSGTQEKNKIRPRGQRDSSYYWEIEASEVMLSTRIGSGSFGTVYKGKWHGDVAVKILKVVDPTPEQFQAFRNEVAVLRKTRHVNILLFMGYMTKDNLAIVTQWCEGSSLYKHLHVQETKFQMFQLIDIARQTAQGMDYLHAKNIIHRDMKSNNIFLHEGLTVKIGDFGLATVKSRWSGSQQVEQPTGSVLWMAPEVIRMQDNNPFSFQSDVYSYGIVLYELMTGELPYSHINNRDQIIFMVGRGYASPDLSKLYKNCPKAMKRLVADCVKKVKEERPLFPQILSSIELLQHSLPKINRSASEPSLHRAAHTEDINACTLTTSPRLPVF

| SMILES | IC50 [1] | other results |
| --- | --- | --- |
| N#Cc1cnc2cc3ccccc3cc2c1Nc1ccc(Oc2ccccc2)cc1 [Example 3, 4-(4-Phenoxyanilino)benzo[g]quinoline-3-carbonitrile] |  | IC50 (Raf-1 (c-Raf)): 90 nM |
| COc1cc(Nc2c(C#N)cnc3cc4c(cc23)ncn4CCN2CCOCC2)c(C)cc1Cl [Example 57, 8-(4-Chloro-5-methoxy-2-methylanilino)-3-[2-(4-morpholinyl)ethyl]-3H-imidazo[4,5-g]quinline-7-carbonitrile] |  | inhibition at 10 µM ([1]; @ dose 10 µM, read-out: Src TF prolif %Inh): 0% |
| COc1cc(Nc2c(C#N)cnc3c2sc2ccc([N+](=O)[O-])cc23)c(C)cc1Cl [Example 75, 4-(4-Chloro-5-methoxy-2-methylphenylamino)-8-nitrobenzo[4,5]thieno[3,2-b]pyridine-3-carbonitrile] |  | inhibition at 10 µM (p60^c-src (Src); dose 10 µM, read-out: Src %Inh): 0% |
| N#Cc1cnc2c(oc3ccccc32)c1Nc1ccc(Cl)cc1F [Example 86, 4-(4-Chloro-2-fluorophenylamino)benzo[4,5]furo[3,2-b]pyridine-3-carbonitrile] |  | Src %Inh (p60^c-src (Src); dose 10 µM): 46%; inhibition at 10 µM (p60^c-src (Src); dose 10 µM, read-out: Src %Inh): 54% |
| COc1ccc2cc3ncc(C#N)c(Nc4ccc(Cl)cc4Cl)c3cc2c1 [Example 103, 4-(2,4-Dichloroanilino)-7-methoxybenzo[g]quinoline-3-carbonitrile] |  | inhibition at 0.1 µM (p60^c-src (Src); read-out: Src %Inh): 30% |
| COc1ccc2cc3c(Nc4ccc(Cl)cc4Cl)c(C#N)cnc3cc2c1 [Example 104, 4-(2,4-dichloroanilino)-8-methoxybenzo[g]quinoline-3-carbonitrile] |  | inhibition at 0.1 µM (p60^c-src (Src); read-out: Src %Inh): 30% |
| COc1cc(Nc2c(C#N)cnc3cc4cc(OCCN5CCOCC5)c(OC)cc4cc23)c(Cl)cc1Cl [Example 129, 4-(2,4-dichloro-5-methoxyanilino)-7-methoxy-8-[2-(4-morpholinyl)ethoxy]benzo[g]quinoline-3-carbonitrile] |  | IC50 (Raf-1 (c-Raf)): 300 nM |
| COc1cc(Nc2c(C#N)cnc3cc4cc(OCCCN5CCOCC5)c(OC)cc4cc23)c(Cl)cc1Cl [Example 157, 4-(2,4-dichloro-5-methoxyphenylamino)-7-methoxy-8-(3-morpholin-4-yl-propoxy)benzo[g]quinoline-3-carbonitrile] | 38 nM |  |
| COc1cc(Nc2c(C#N)cnc3cc4cc(OCCn5nccn5)c(OC)cc4cc23)c(Cl)cc1Cl [Example 158, 4-(2,4-Dichloro-5-methoxyphenylamino)-7-methoxy-8-(2-[1,2,3]triazol-2-yl-ethoxy)benzo[g]quinoline-3-carbonitrile] | 67 nM |  |
| COc1cc(Nc2c(C#N)cnc3cc4cc(OCCn5ccnn5)c(OC)cc4cc23)c(Cl)cc1Cl [Example 159, 4-(2,4-Dichloro-5-methoxyphenylamino)-7-methoxy-8-(2-[1,2,3]triazol-1-yl-ethoxy)benzo[g]quinoline-3-carbonitrile] | 73 nM |  |
| COc1cc(Nc2c(C#N)cnc3nc4cc(OC)c(OC)cc4cc23)c(Cl)cc1Cl [Example 165, 4-(2,4-Dichloro-5-methoxyanilino)-7,8-dimethoxybenzo[b] [1,8]naphthyridine-3-carbonitrile] | > 10000 nM |  |
| COc1cc(Nc2c(C#N)cnc3nc4cc(OCCCl)c(OC)cc4cc23)c(Cl)cc1Cl [Example 172, 8-(2-Chloroethoxy)-4-(2,4-dichloro-5-methoxyanilino)-7-methoxybenzo[b][1,8]naphthyridine-3-carbonitrile] | 1880 nM |  |
| COc1cc(Nc2c(C#N)cnc3nc4cc(OCCN5CCOCC5)c(OC)cc4cc23)c(Cl)cc1Cl [Example 173, 4-(2,4-Dichloro-5-methoxyanilino)-7-methoxy-8-[2-(4-morpholinyl)ethoxy]benzo[b][1,8]naphthyridine-3-carbonitrile] | 3740 nM | inhibition at 0.1 µM (p60^c-src (Src); read-out: Src %Inh): 33% |
| COc1cc2cc3c(Nc4ccc(Cl)cc4Cl)c(C#N)cnc3nc2cc1OC [Example 177, 4-(2,4-Dichloroanilino)-7,8-dimethoxybenzo[b] [1,8]naphthyridine-3-carbonitrile] |  | inhibition at 5 µM (p60^c-src (Src); dose 5 µM, read-out: Src %Inh): 30% |
| CCOc1cc2cc3ncc(C#N)c(Nc4cc(OC)c(Cl)cc4C)c3cc2cc1OCCN1CCOCC1 [Example 190, 4-(4-Chloro-5-methoxy-2-methylanilino)-8-ethoxy-7-[2-(4-morpholinyl)ethoxy]benzo[g]quinoline-3-carbonitrile] | 170 nM |  |
| CCOc1cc2cc3c(Nc4cc(OC)c(Cl)cc4C)c(C#N)cnc3cc2cc1OCCN1CCOCC1 [Example 191, 4-(4-Chloro-5-methoxy-2-methylanilino)-7-ethoxy-8-[2-(4-morpholinyl)ethoxy]benzo[g]quinoline-3-carbonitrile] | 22 nM |  |
| CCOc1cc2cc3c(Nc4cc(OC)c(Cl)cc4C)c(C#N)cnc3cc2cc1OCCN(CC(N)=O)CC(N)=O [Example 194, 2-(Carbamoylmethyl-{2-[4-(4-chloro-5-methoxy-2-methylphenylamino)-3-cyano-7-ethoxybenzo[g]quinolin-8-yloxy]-ethyl}-amino)-acetamide] | > 10000 nM |  |
| COc1cc(Nc2c(C#N)cnc3cc4cc(OC)c(OCCN5CCN(C)CC5)cc4cc23)c(Cl)cc1F [Example 201, 4-(2-Chloro-4-fluoro-5-methoxyanilino)-8-methoxy-7-[2-(4-methyl-1-piperazinyl)ethoxy]benzo[g]quinoline-3-carbonitrile] | 175 nM |  |
| COc1cc(Nc2c(C#N)cnc3cc4cc(OC)c(OCCN5CCN(C)CC5)cc4cc23)c(Cl)cc1C [Example 202, 4-(2-Chloro-5-methoxy-4-methylanilino)-8-methoxy-7-[2-(4-methyl-1-piperazinyl)ethoxy]benzo[g]quinoline-3-carbonitrile] | 68 nM |  |
| COc1cc(Nc2c(C#N)cnc3cc4cc(OCCN5CCN(C)CC5)c(OC)cc4cc23)c(Cl)cc1C [Example 203, 4-(2-Chloro-5-methoxy-4-methylanilino)-7-methoxy-8-[2-(4-methyl-1-piperazinyl)ethoxy]benzo[g]quinoline-3-carbonitrile] | 71 nM |  |
| COc1cc(Nc2c(C#N)cnc3cc4cc(OC)c(OCCN5CCC(O)CC5)cc4cc23)c(Cl)cc1C [Example 207, 4-(2-Chloro-5-methoxy-4-methylanilino)-8-methoxy-7-[2-(4-hydroxy-1-piperidinyl)ethoxy]benzo[g]quinoline-3-carbonitrile] | 929 nM |  |
| COc1cc(Nc2c(C#N)cnc3cc4cc(OC)c(OCCN5CCOCC5)cc4cc23)c(Cl)cc1F [Example 209, 4-(2-Chloro-4-fluoro-5-methoxyanilino)-8-methoxy-7-[2-(4-morpholinyl)ethoxy]benzo[g]quinoline-3-carbonitrile] | 309 nM |  |
| COc1cc(Nc2c(C#N)cnc3cc4cc(OCCN5CCN(C)CC5)c(OC)cc4cc23)c(Cl)cc1F [Example 211, 4-(2-Chloro-4-fluoro-5-methoxyanilino)-7-methoxy-8-[2-(4-methyl-1-piperazinyl)ethoxy]benzo[g]quinoline-3-carbonitrile] | 128 nM |  |
